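1) Cells in 96-well plates. 2) Compound, 48 h, 5 concentrations. 3) Linear interpolation between surrounding doses. 4) Unreached endpoint = highest concentration. Abbreviation: GI50, concentration required for 50% inhibition of growth. TGI marks complete inhibition of growth.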
Experiments:
Assay in all cases: DTP human tumour cell line panel, 48 h
SF-539 CNS = test system: SF-539 CNS
NCI/ADR-RES ovarian = test system: NCI/ADR-RES ovarian
SNB-19 CNS = test system: SNB-19 CNS
U251 CNS = test system: U251 CNS
UO-31 renal = test system: UO-31 renal
NCI-H23 lung = test system: NCI-H23 lung
SK-MEL-28 melanoma = test system: SK-MEL-28 melanoma
786-0 renal = test system: 786-0 renal
OVCAR-4 ovarian = test system: OVCAR-4 ovarian
SK-MEL-5 melanoma = test system: SK-MEL-5 melanoma

With `CCC(=O)c1cc([N+](=O)[O-])c(Br)s1` as the compound, how does the GI50 (SF-539 CNS) read?
The GI50 was 3.9 µM.

And the TGI (SF-539 CNS)?
Its TGI is 16.8 µM.

And the GI50 (NCI/ADR-RES ovarian)?
Its GI50 is 6.15 µM.

And the TGI (NCI/ADR-RES ovarian)?
The TGI was 24.1 µM.

What about the GI50 (SNB-19 CNS) of the same compound?
The GI50 was 17.4 µM.

And the TGI (SNB-19 CNS)?
The TGI was 35.3 µM.

What about the GI50 (U251 CNS) of the same compound?
The GI50 was 1.85 µM.

What about the TGI (U251 CNS) of the same compound?
The TGI was 4.02 µM.

What about the GI50 (UO-31 renal) of the same compound?
The GI50 was 1.59 µM.

And the TGI (UO-31 renal)?
Its TGI is 2.98 µM.

What about the GI50 (NCI-H23 lung) of the same compound?
Its GI50 is 17.3 µM.

And the TGI (NCI-H23 lung)?
Its TGI is 49.2 µM.

What about the GI50 (SK-MEL-28 melanoma) of the same compound?
The GI50 was 4.17 µM.

And the TGI (SK-MEL-28 melanoma)?
Its TGI is 15.2 µM.

What about the GI50 (786-0 renal) of the same compound?
Its GI50 is 12.6 µM.

And the TGI (786-0 renal)?
The TGI was 26.6 µM.

And the GI50 (OVCAR-4 ovarian)?
The GI50 was 1.86 µM.

And the TGI (OVCAR-4 ovarian)?
The TGI was 3.65 µM.

And the GI50 (SK-MEL-5 melanoma)?
Its GI50 is 16.5 µM.

And the TGI (SK-MEL-5 melanoma)?
The TGI was 30.4 µM.

Which GI50 (SF-539 CNS) does the source give for `Fc1cc(-c2nnc3n2N=C(c2ccc(Cl)cc2Cl)CS3)c(Cl)cc1Cl` here?
Its GI50 is 39.2 µM.

And the TGI (SF-539 CNS)?
Its TGI is greater than 100 µM.

And the GI50 (NCI/ADR-RES ovarian)?
The GI50 was 30.8 µM.

And the TGI (NCI/ADR-RES ovarian)?
Its TGI is 99.5 µM.

What about the GI50 (SNB-19 CNS) of the same compound?
Its GI50 is 25.4 µM.

And the TGI (SNB-19 CNS)?
The TGI was greater than 100 µM.

What about the GI50 (U251 CNS) of the same compound?
The GI50 was 38.2 µM.

What about the TGI (U251 CNS) of the same compound?
Its TGI is greater than 100 µM.

What about the GI50 (UO-31 renal) of the same compound?
The GI50 was 60.2 µM.

What about the TGI (UO-31 renal) of the same compound?
Its TGI is greater than 100 µM.

What about the GI50 (NCI-H23 lung) of the same compound?
The GI50 was 82.5 µM.

And the TGI (NCI-H23 lung)?
Its TGI is greater than 100 µM.

What about the GI50 (SK-MEL-28 melanoma) of the same compound?
Its GI50 is 40.2 µM.

What about the TGI (SK-MEL-28 melanoma) of the same compound?
Its TGI is greater than 100 µM.

And the GI50 (786-0 renal)?
Its GI50 is 47.1 µM.

And the TGI (786-0 renal)?
The TGI was greater than 100 µM.

What about the GI50 (OVCAR-4 ovarian) of the same compound?
Its GI50 is greater than 100 µM.

And the TGI (OVCAR-4 ovarian)?
The TGI was greater than 100 µM.

What about the GI50 (SK-MEL-5 melanoma) of the same compound?
The GI50 was 26.1 µM.

And the TGI (SK-MEL-5 melanoma)?
Its TGI is 65.1 µM.

What does the source list for `Cc1n(Cc2ccc3ccccc3c2)c(Cl)c(Cl)[n+]1Cc1ccc2ccccc2c1`?
GI50 (SF-539 CNS): 1.62 µM; TGI (SF-539 CNS): 3.08 µM; GI50 (NCI/ADR-RES ovarian): 12 µM; TGI (NCI/ADR-RES ovarian): 29.6 µM; GI50 (SNB-19 CNS): 1.57 µM; TGI (SNB-19 CNS): 2.96 µM; GI50 (U251 CNS): 1.79 µM; TGI (U251 CNS): 3.6 µM; GI50 (UO-31 renal): 1.71 µM; TGI (UO-31 renal): 8.24 µM; GI50 (NCI-H23 lung): 1.66 µM; TGI (NCI-H23 lung): 3.86 µM; GI50 (SK-MEL-28 melanoma): 1.68 µM; TGI (SK-MEL-28 melanoma): 3.18 µM; GI50 (786-0 renal): 1.71 µM; TGI (786-0 renal): 3.14 µM; GI50 (OVCAR-4 ovarian): 1.39 µM; TGI (OVCAR-4 ovarian): 2.76 µM; GI50 (SK-MEL-5 melanoma): 1.69 µM; TGI (SK-MEL-5 melanoma): 3.08 µM

What does the source list for `CCc1cccc(CC)c1/C=C/c1cncc(C(=O)NC)c1`?
GI50 (SF-539 CNS): 8.58 µM; TGI (SF-539 CNS): > 25 µM; GI50 (NCI/ADR-RES ovarian): 6.71 µM; TGI (NCI/ADR-RES ovarian): > 25 µM; GI50 (SNB-19 CNS): 19.7 µM; TGI (SNB-19 CNS): > 25 µM; GI50 (U251 CNS): 10.6 µM; TGI (U251 CNS): > 25 µM; GI50 (UO-31 renal): 8.8 µM; TGI (UO-31 renal): > 25 µM; GI50 (NCI-H23 lung): 15.2 µM; TGI (NCI-H23 lung): > 25 µM; GI50 (SK-MEL-28 melanoma): 13.4 µM; TGI (SK-MEL-28 melanoma): > 25 µM; GI50 (786-0 renal): 14.2 µM; TGI (786-0 renal): > 25 µM; GI50 (OVCAR-4 ovarian): > 21.4 µM; TGI (OVCAR-4 ovarian): > 25 µM; GI50 (SK-MEL-5 melanoma): 5.71 µM; TGI (SK-MEL-5 melanoma): > 16.2 µM

Which GI50 (SF-539 CNS) does the source give for `COc1ccc2cc(-c3c(-c4ccncc4)nc(-c4ccc(S(C)=O)cc4C)n3C)ccc2c1` (stereo not given) here?
Its GI50 is greater than 25 µM.

And the TGI (SF-539 CNS)?
The TGI was greater than 25 µM.

And the GI50 (NCI/ADR-RES ovarian)?
The GI50 was 24.3 µM.

What about the TGI (NCI/ADR-RES ovarian) of the same compound?
Its TGI is greater than 25 µM.

What about the GI50 (SNB-19 CNS) of the same compound?
The GI50 was greater than 25 µM.

What about the TGI (SNB-19 CNS) of the same compound?
The TGI was greater than 25 µM.

What about the GI50 (U251 CNS) of the same compound?
Its GI50 is greater than 23.2 µM.

And the TGI (U251 CNS)?
Its TGI is greater than 25 µM.

And the GI50 (UO-31 renal)?
Its GI50 is 6.37 µM.

What about the TGI (UO-31 renal) of the same compound?
Its TGI is greater than 25 µM.

What about the GI50 (NCI-H23 lung) of the same compound?
The GI50 was greater than 25 µM.

And the TGI (NCI-H23 lung)?
The TGI was greater than 25 µM.

What about the GI50 (SK-MEL-28 melanoma) of the same compound?
Its GI50 is greater than 25 µM.

What about the TGI (SK-MEL-28 melanoma) of the same compound?
Its TGI is greater than 25 µM.

And the GI50 (786-0 renal)?
The GI50 was 24.3 µM.

And the TGI (786-0 renal)?
Its TGI is greater than 25 µM.

What about the GI50 (OVCAR-4 ovarian) of the same compound?
Its GI50 is 16.3 µM.

And the TGI (OVCAR-4 ovarian)?
The TGI was greater than 25 µM.

And the GI50 (SK-MEL-5 melanoma)?
The GI50 was 7.58 µM.

What about the TGI (SK-MEL-5 melanoma) of the same compound?
Its TGI is greater than 21.6 µM.

`COc1ccc(-c2nc3c(c(=O)n2C(C)=O)C(c2ccc(Cl)cc2)c2sc4c(Cl)cccc4c2O3)cc1` (stereo not given) was tested. Which GI50 (SF-539 CNS) did it give?
Its GI50 is 0.259 µM.

What about the TGI (SF-539 CNS) of the same compound?
The TGI was 0.84 µM.

What about the GI50 (NCI/ADR-RES ovarian) of the same compound?
Its GI50 is 0.187 µM.

And the TGI (NCI/ADR-RES ovarian)?
Its TGI is 0.919 µM.

And the GI50 (SNB-19 CNS)?
Its GI50 is 0.413 µM.

And the TGI (SNB-19 CNS)?
Its TGI is 2.01 µM.

What about the GI50 (U251 CNS) of the same compound?
Its GI50 is 0.483 µM.

And the TGI (U251 CNS)?
The TGI was 1.76 µM.

What about the GI50 (UO-31 renal) of the same compound?
Its GI50 is 0.329 µM.

What about the TGI (UO-31 renal) of the same compound?
Its TGI is 2.39 µM.

And the GI50 (NCI-H23 lung)?
Its GI50 is 0.343 µM.

And the TGI (NCI-H23 lung)?
The TGI was 2.09 µM.

What about the GI50 (SK-MEL-28 melanoma) of the same compound?
Its GI50 is 1.15 µM.

What about the TGI (SK-MEL-28 melanoma) of the same compound?
The TGI was 3.39 µM.

And the GI50 (786-0 renal)?
Its GI50 is 0.43 µM.

And the TGI (786-0 renal)?
Its TGI is 1.63 µM.

And the GI50 (OVCAR-4 ovarian)?
Its GI50 is 0.845 µM.

And the TGI (OVCAR-4 ovarian)?
Its TGI is 3.66 µM.

What about the GI50 (SK-MEL-5 melanoma) of the same compound?
The GI50 was 0.297 µM.

What about the TGI (SK-MEL-5 melanoma) of the same compound?
Its TGI is 1.11 µM.
